# Reference: article PMC7034072, “Discovery of small molecule inhibitors of Leishmania braziliensis Hsp90 chaperone” (Journal of Enzyme Inhibition and Medicinal Chemistry, 2020)
# Columns and labels:
# [1] = system: promastigote form of L. braziliensis; experiment: Cell viability assay (MTT/PMS), single concentration; type: cell-based; details: L. braziliensis promastigotes; for Cell viability / reduced cell viability: 200 μM/well; for Cell viability: MTT/PMS, Yes = leishmanicidal activity; for reduced cell viability: after 72 h
# Procedure: The leishmanicidal activity of the compounds was tested in vitro against the promastigote form of L. braziliensis applying 200 μM/well, (with a total of 0.5% DMSO) into 90 μL of culture. The concentration of L. braziliensis (MHOM/BR/1973/M2269) was adjusted to 10^7 cells/mL. Amphotericin (100 μM/well) was used as positive control, and 0.5% DMSO as negative control.
# The plates were incubated at room temperature (RT) for 72 h. After this period, the viability of the promastigotes was verified via MTT (3–(4, 5-Dimethylthiazol-2-yl)-2, 5-Diphenyltetrazolium Bromide) colorimetric assay. MTT/PMS 11.1 μL/well solution (MTT = 5 mg/mL; Phenazine methosulfate-PMS = 0.22 mg/mL) was added, and the plate was incubated at RT for 4 h, at 150 RPM, protected from light. Formazan crystals were then solubilised by adding 100 μL/well of a solubilisation solution containing 7% SDS, 10 mM HCl and 30% DMSO. The mixture was incubated at RT for 90 min at 150 RPM protected from light. Wells containing the medium and the compounds or DMSO without MTT were used as blank controls. The absorbance was quantified in a plate reader (Biotek Synergy HT) at 570 nm.
# The cell viability percentages were calculated by the following equation: (1) Cell viability %= AT−AB/AU−AB ×100 where AT was an averaged absorbance from treated samples, AB blank absorbance and AU was an averaged absorbance from negative control.
# [2] = system: LbHsp90 and LbHsp90N recombinant proteins; experiment: Differential scanning fluorimetry (thermal shift assay); type: binding, L. braziliensis; details: DSF; for Thermal shift: inclusion criterion Tm variation greater or equal to ± 2 °C in LbHsp90 or LbHsp90N, Yes/No
# Procedure: The interaction of Hsp90 proteins with different compounds was monitored through the melting temperature (Tm) of each protein in the presence of a fixed concentration of the target compound by differential scanning fluorimetry (DSF) also referred as thermal shift assay. A final concentration of 10 µM of dimeric LbHsp90 and 20 µM of monomeric LbHsp90N in 40 mM Hepes buffer (pH 7.5) containing 100 mM KCl were used. The DMSO concentration in each sample was fixed at 2.5% (v/v). Prior to the readings, the samples were incubated for 30 min on ice. The fluorophore Sypro Orange (Life Technologies) was used as fluorescent probe. The experiments were performed at a thermocycler CFX96 Touch Real Time PCR Detection System (BioRad) and the data were analysed using the CFX Manager software (BioRad). As positive controls, 100 µM of GA and Radicicol (RDC) were used.
# [3] = system: Balb-c 3T3 clone A31 mouse fibroblasts; experiment: Cytotoxic assay (MTT); type: cell-based; details: Balb-c 3T3 mouse fibroblasts, 72 h, 37 °C
# Procedure: Compounds cytotoxicity was evaluated in 100 μL of Balb-c 3T3 cone A31 mouse fibroblasts (10^5 cells/mL) into a 96-well plate, incubated for 24 h at 37 °C to become adhered. After this period, the medium was washed and 100 μL of each compound was added to the culture medium (concentration ranging from 1 to 200 μM/well, with a total of 0.5% DMSO) in quadruplicate. Rapamycin was used as a positive control, and 0.5% DMSO was used as negative control. The plates were incubated for 72 h at 37 °C. After this, the viability of Balb-c 3T3 cells was evaluated by MTT colorimetric assay, as described previously.
# [4] = system: promastigote forms of L. braziliensis; experiment: In vitro IC50 determination (leishmanicidal activity, MTT/PMS); type: cell-based; details: promastigotes, 72 h, RT
# Procedure: Amphotericin 100 μM/well and 0.5% DMSO were used as positive and negative control, respectively. The plates were incubated at RT for 72 h. After this, the viability of the promastigotes was verified by MTT/PMS colorimetric assay, as described above. In vitro leishmanicidal activity, expressed as IC50, was determined using GraphPad Prism 5 software according to the following equation: (2) y= Amin + Amax−Amin/1+10^logIC50 −x*Hillslope where Amin and Amax are, respectively, the minimum and maximum activities obtained, x is the ligand concentration and Hill Slope is the parameter that describes the steepness of the curve.
# The selectivity index parameter was obtained by the ratio of compound IC50 against mammalian cells and compound IC50 against promastigote cells.
# hHsp90β [5] = biological target: T1, hHsp90β (Homo sapiens, UniProt P08238); experiment: Tryptophan fluorescence quenching interaction assay; type: binding; details: for Kd: read-out: KDapp hHsp90β
# T1 construct: made in house; host or cells: Escherichia coli BL21(DE3)
# Procedure: (§1) Two µM of protein in 40 mM Hepes buffer (pH 7.5), 100 mM KCl, was incubated for 30 min on ice with increasing concentrations of the compounds diluted in DMSO. […] The samples were excited at 280 nm and the emission was collected in the 300–400 nm range, in a 1.0 × 0.2 cm optical path cuvette, on an F-4500 Fluorescence Spectrophotometer (Hitachi). The fluorescence quenching was analysed at the maximum emission wavelength in the absence of ligand. The determination of the apparent dissociation constant (KDapp) was performed by fitting the fluorescence values obtained for each compound concentration according to a dose-response model through the Equation (3): (3) y = Fmin + (Fmax−Fmin)/(1+10^(logKD− [ligand])) where Fmin and Fmax are the minimum and maximum fluorescence intensity and [ligand] is the compound concentration used in the assay, according to the GraphPad Prism 5 software. The fluorescence intensities were corrected by inner filter effects as previously described.
# LbHsp90 [6] = biological target: T2, LbHsp90 (Leishmania braziliensis, UniProt A4HL70); experiment: as above; type: binding; details: for Kd: full-length, tryptophan fluorescence quenching, read-out: KDapp LbHsp90
# Procedure: as §1
# hHsp90βN = biological target: T3, hHsp90βN (Homo sapiens, UniProt P08238); experiment: as above; type: binding; details: N-terminal domain; for Kd: read-out: KDapp hHsp90βN
# T3 construct: N-terminal domain construct (Hsp90βN – residues 1–223); His-tag (cleaved yes); made in house; host or cells: Escherichia coli BL21(DE3)
# Procedure: as §1
# hHsp90β [7] = biological target: T1, hHsp90β; experiment: ATPase activity inhibition assay (EnzChek Pi quantification); type: biochemical; details: 50 μM compound, 2 μM enzyme, 2.5 mM ATP
# Procedure: (§2) The ATPase activity of LbHsp90 and hHsp90β was evaluated spectrophotometrically through inorganic phosphate (Pi) quantification following ATP hydrolysis, by the EnzChek™ assay kit (Invitrogen®) as previous described[31]^,[34]. Briefly, a 2 µM solution of LbHsp90 and hHsp90β enzymes was prepared in 150 mM NaCl, 5 mM MgCl2 and 20 mM Tris-HCl, pH 7.5, and incubated with ATP (concentration range 0–5 mM) for 60 min at 37 °C. Then, the chromogenic substrate 2-amino-6-mercapto 7-methyl purine riboside (MESG) and the purine nucleoside phosphorylase (PNP) were added and the resulting reaction mixture was incubated for 30 min at 37 °C. The assays were performed in a 96-well plate and kinetic parameters determined by Michaelis–Menten fitting using GraphPad Prism 6 software.
# (§3) Initial screenings were performed using 50 μM compound concentration in a reaction mixture consisting of 2 μM enzyme and 2.5 mM ATP. After 1 h incubation at 37 °C, MESG and PNP were added. The amount of Pi was estimated after 30 min incubation at 37 °C. […] A compound concentration ranging from 1 to 75 μM was included in the reaction mixture and Pi quantification performed as previously described (measurements were performed in triplicate). IC50 values were determined by non-linear regression data fitting (using GraphPad Prism 6 software).
# LbHsp90 [8] = biological target: T2, LbHsp90; experiment: as above; type: biochemical; details: compound 1 to 75 μM, triplicate; read-out: IC50 LbHsp90 ATPase activity inhibition
# Procedure: as §2
# as §3, with “The inhibitory activity against LbHsp90 and hHsp90β of compounds showing interaction in DSF assays (namely Glb08, Glb15, Gl23, Glb25 and Glb27) was determined using spectrophotometric ATPase activity assays as described above. Initial” for “Initial”, “°C. GA was used as reference compound, reporting 100% ATPase activity inhibition (at 50 μM).” for “°C.”
# [9] = full-length, tryptophan fluorescence quenching
# T1 sequence (P08238 whole entry): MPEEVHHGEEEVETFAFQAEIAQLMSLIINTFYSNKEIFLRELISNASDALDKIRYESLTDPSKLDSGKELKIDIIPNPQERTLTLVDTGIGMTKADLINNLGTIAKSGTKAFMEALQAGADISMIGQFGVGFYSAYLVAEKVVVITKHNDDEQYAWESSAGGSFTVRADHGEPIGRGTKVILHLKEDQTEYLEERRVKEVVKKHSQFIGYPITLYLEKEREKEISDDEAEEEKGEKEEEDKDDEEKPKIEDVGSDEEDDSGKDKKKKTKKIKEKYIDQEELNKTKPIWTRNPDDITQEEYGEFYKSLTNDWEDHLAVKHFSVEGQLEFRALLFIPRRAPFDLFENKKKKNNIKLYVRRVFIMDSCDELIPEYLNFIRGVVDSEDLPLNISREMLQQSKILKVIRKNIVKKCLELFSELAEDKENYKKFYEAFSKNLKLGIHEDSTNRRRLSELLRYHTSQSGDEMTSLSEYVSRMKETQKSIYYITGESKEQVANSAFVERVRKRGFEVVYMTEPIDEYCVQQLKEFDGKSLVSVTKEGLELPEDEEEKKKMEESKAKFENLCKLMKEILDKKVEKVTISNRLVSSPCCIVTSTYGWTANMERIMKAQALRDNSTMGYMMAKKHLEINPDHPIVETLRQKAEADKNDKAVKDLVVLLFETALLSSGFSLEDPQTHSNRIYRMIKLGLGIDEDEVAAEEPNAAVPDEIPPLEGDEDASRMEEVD
# T2 sequence (A4HL70 entry or part of it): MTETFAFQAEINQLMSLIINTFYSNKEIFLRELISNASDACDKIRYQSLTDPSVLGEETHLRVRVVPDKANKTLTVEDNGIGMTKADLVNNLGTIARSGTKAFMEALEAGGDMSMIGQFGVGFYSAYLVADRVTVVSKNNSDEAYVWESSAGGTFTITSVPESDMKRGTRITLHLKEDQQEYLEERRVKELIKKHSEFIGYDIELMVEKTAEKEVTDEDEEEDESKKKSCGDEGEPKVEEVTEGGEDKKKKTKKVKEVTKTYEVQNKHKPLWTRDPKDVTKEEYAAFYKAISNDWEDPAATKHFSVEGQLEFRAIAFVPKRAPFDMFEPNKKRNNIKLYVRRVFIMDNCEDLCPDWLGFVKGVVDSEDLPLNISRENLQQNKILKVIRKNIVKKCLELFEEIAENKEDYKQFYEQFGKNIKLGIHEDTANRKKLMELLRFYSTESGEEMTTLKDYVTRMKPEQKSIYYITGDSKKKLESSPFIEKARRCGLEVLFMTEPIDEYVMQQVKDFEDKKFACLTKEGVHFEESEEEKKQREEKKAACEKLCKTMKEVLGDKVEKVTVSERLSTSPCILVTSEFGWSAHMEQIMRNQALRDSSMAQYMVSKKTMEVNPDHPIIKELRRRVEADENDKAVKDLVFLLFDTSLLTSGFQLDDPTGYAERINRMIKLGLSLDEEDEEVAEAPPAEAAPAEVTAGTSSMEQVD
# T3 sequence (P08238 1-223): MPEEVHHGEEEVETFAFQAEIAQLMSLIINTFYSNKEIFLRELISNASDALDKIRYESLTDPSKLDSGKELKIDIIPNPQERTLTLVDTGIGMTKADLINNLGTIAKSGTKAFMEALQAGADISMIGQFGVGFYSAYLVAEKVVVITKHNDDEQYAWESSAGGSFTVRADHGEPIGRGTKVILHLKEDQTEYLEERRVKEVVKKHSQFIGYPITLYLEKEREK
Compound,Thermal shift [2],Cell viability ([1]; 72 h),also measured
"C[C@@H]1[C@H](O)[C@@H](C)/C=C/C=C/C=C/C=C/C=C/C=C/C=C/[C@H](O[C@@H]2O[C@H](C)[C@@H](O)[C@H](N)[C@@H]2O)C[C@@H]2O[C@](O)(C[C@@H](O)C[C@@H](O)[C@H](O)CC[C@@H](O)C[C@@H](O)CC(=O)O[C@H]1C)C[C@H](O)[C@H]2C(=O)O [Amphotericin, reference compound]",,,"killing activity ([1]; positive control, 100 μM/well, 72 h): more than 95%"
NC(=O)c1ccc(-c2nccc3occc23)cc1 [Glb01],No,No,
CCC(=O)NCc1cccc(-c2ccnc3[nH]ccc23)c1 [Glb02],positive outcomes and Yes,No,
NC(=O)Nc1cccc(C(=O)OCc2ccccc2C(F)(F)F)c1 [Glb04],No,No,
NC(=O)c1ccc(C(=O)N2CCc3ccccc32)cc1 [Glb05],No,No,
CS(=O)(=O)N1CCN(c2ccc(C(N)=O)cc2)CC1 [Glb06],No,No,
NC(=O)c1cn(Cc2cccc3cccnc23)nc1-c1ccccc1 [Glb07],No,No,
CC(C)(C)c1cc(CSC(=N)N)cc(C(C)(C)C)c1O [Glb11],positive outcomes and Yes,No,
Nc1nc(Cc2ccccc2)n[nH]1 [Glb12],No,No,
Cn1cc(-c2ccc(F)cc2)c2nc[nH]c(=O)c21 [Glb13],No,No,
N=C(N)NCc1cn(-c2ccccc2)nc1-c1ccccc1 [Glb14],No,Yes,reduced cell viability [1]: more than 60%; IC50 [3]: > 200 µM; IC50 [4]: 30 ± 1 µM
N=C(N)NCc1ccc(Oc2ccc(F)cc2)cc1 [Glb16],positive outcomes and Yes,Yes,reduced cell viability [1]: more than 60%; IC50 [3]: 23 ± 1 µM; IC50 [4]: 12 ± 2 µM
Cc1cccc(Oc2ccccc2CNC(=N)N)c1 [Glb17],No,Yes,reduced cell viability [1]: more than 60%; KDapp hHsp90β (hHsp90β [5]; [9]): Ambiguous^#; tryptophan fluorescence quenching (qualitative) (hHsp90β [5]; hHsp90β constructions): did not induce tryptophan fluorescence quenching; tryptophan fluorescence quenching (qualitative) (LbHsp90 [6]; LbHsp90 constructions): did not induce tryptophan fluorescence quenching; KDapp hHsp90βN (hHsp90βN): Ambiguous^#; IC50 [3]: 58 ± 1 µM; IC50 [4]: 4 ± 1 µM
N=C(N)SCc1cc(=O)oc2cc3c(cc12)CCC3 [Glb18],No,No,
N=C(N)SCc1cccc(OCC(N)=O)c1 [Glb19],No,No,
COc1ccc(C2(CNC(=N)N)CC2)cc1 [Glb20],No,No,
N=C(N)Nc1nc(-c2ccccc2)c(CC(=O)O)s1 [Glb21],No,No,
N=C(N)SCc1ccc(C(=O)O)cc1 [Glb22],No,No,
N=C(N)SCc1nc2ccccc2c(=O)n1-c1ccccc1 [Glb23],No,Yes,percentage inhibition of hHsp90β ATPase activity (hHsp90β [7]): lower than 60%; IC50 (LbHsp90 [8]): 35 ± 1 µM; reduced cell viability [1]: more than 60%; Kd (hHsp90β [5]; [9]): 21 ± 9 µM; Kd (LbHsp90 [6]): 26 ± 7 µM; Kd (hHsp90βN): 20 ± 30 µM; IC50 [3]: 55 ± 1 µM; IC50 [4]: > 100 µM
Cn1c(CSC(=N)N)c(Cl)c(=O)n1-c1ccccc1 [Glb24],No,No,
Cc1cc(CSC(=N)N)cc(C(C)(C)C)n1 [Glb26],No,No,
N=C(N)NN=Cc1ccc2cccc(OCc3ccccc3)c2n1 [Glb27],positive outcomes and Yes,Yes,percentage inhibition of hHsp90β ATPase activity (hHsp90β [7]): lower than 60%; reduced cell viability [1]: more than 60%; Kd (hHsp90β [5]; [9]): 5 ± 4 µM; Kd (LbHsp90 [6]): 7 ± 1 µM; Kd (hHsp90βN): 6 ± 2 µM; IC50 [3]: 13 ± 2 µM; IC50 [4]: 11 ± 1 µM
N=C(N)NCc1nn(Cc2ccccc2)c(=O)c2ccccc12 [Glb28],No,,
"C[C@@H]1C[C@H]2O[C@@H]2/C=C\C=C\C(=O)Cc2c(Cl)c(O)cc(O)c2C(=O)O1 [RDC, Radicicol, reference compound]",,,"ΔTm ([2]; 100 µM positive controls, protein stabilisation): > 2.0 °C"
